Broadly, the IC50 is the midpoint of a concentration-inhibition curve.

Where a name gives a salt, the structure may show the parent alone.

The first test deals with IL-4 stimulated expression of CD23 in human Ramos B cells (JAK-1 and JAK-3). Put plainly: Assay for Ramos B-Cell Line Stimulated with IL-4 (CD23 upregulation, FACS). Format: cell-based. The following applies: Homo sapiens, Ramos, Ramos B cells stimulated with IL-4, CD23 expression by FACS; read-out: IC50, Example 41. In outline:
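Human Ramos B cells in RPMI with 5% serum were pre-incubated with compound or DMSO for 1 h at 37 °C, then stimulated with IL-4 at a final 50 units/mL for 20-24 h. CD23 upregulation was measured by anti-CD23-PE staining and flow cytometry, and IC50 values were calculated.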
(A flow cytometer gives signals particle by particle.)
Regarding `NS(=O)(=O)c1cccc(Nc2ncc(F)c(Nc3ccc(O)cc3)n2)c1` [VI-101, N2-(3-Aminosulfonylphenyl)-5-fluoro-N4-(4-hydroxyphenyl)-2,4-pyrimidinediamine], the IC50 was found to be 0.919 µM.
As for `CCC(=O)NS(=O)(=O)c1cc(Nc2ncc(F)c(Nc3ccc(CCC#N)c(C)c3)n2)ccc1C` [VI-103, N4-[4(2-Cyanoethyl)-3-methylphenyl]-5-fluoro-N2-(4-methyl-3-propionylaminosulfonylphenyl)-2,4-pyrimidinediamine], the IC50 is 3.08 µM.
Same read-out and setting: in the case of `CCN(CC)S(=O)(=O)c1cc(Nc2ncc(F)c(N(C)c3ccc(Cl)c(Cl)c3)n2)ccc1OC` [VI-105, N4-(3,4-dichlorophenyl)-N4-methyl-5-fluoro-N2-[3-(N,N-diethyl)aminosulfonyl-4-methoxyphenyl]-2,4-pyrimidinediamine] it was 10.3 µM; in that of `NS(=O)(=O)c1cccc(Nc2ncc(F)c(Nc3cccc(S(N)(=O)=O)c3)n2)c1` [VI-113, N2,N4-Bis-(3-aminosulfonylphenyl)-5-fluoro-2,4-pyrimidinediamine], 0.7 µM.
Still for that read-out and setting: in the case of `NS(=O)(=O)c1cc(Nc2ncc(F)c(Nc3ccc(Cl)c(S(N)(=O)=O)c3)n2)ccc1Cl` [VI-115, N2,N4-Bis-(3-aminosulfonyl-4-chlorophenyl)-5-fluoro-2,4-pyrimidinediamine] it was 0.89 µM; in that of `COC(=O)[C@@H]1C[C@@H](Nc2nc(Nc3ccc(C)c(S(N)(=O)=O)c3)ncc2F)CN1C(=O)CC#N` [VII-1, N2-(3-Aminosulfonyl-4-methylphenyl)-N4-[(2S,4R)-1-(2-cyanoacetyl)-2-methoxycarbonylpyrrolidin-4-yl]-5-fluoro-2,4-pyrimidinediamine], 6.65 µM; in that of `COC(=O)[C@@H]1C[C@H](Nc2nc(Nc3ccc(C)c(S(N)(=O)=O)c3)ncc2F)CN1C(=O)CC#N` [VII-2, N2-(3-Aminosulfonyl-4-methylphenyl)-N4-[(2S,4S)-1-(2-cyanoacetyl)-2-methoxycarbonylpyrrolidin-4-yl]-5-fluoro-2,4-pyrimidinediamine], 36.2 µM.
Turning to `CN1C(=O)C(C)(C)S(=O)(=O)c2ccc(Nc3nc(Nc4cccc(S(N)(=O)=O)c4)ncc3F)cc21` [VII-11, N2-(3-Aminosulphonylphenyl)-5-fluoro-N4-(2,2,4-trimethyl-1,1,3-trioxo-benzo[1,4]thiazin-6-yl)-2,4-pyrimidinediamine], the concentration for half-maximal inhibition (IC50) was determined as 0.602 µM.
Consider `Cc1ccc(Nc2ncc(F)c(Nc3ccc4c(c3)CCC(=O)N4)n2)cc1S(N)(=O)=O` [VII-21, N2-(3-Aminosulfonyl-4-methylphenyl)-N4-[3,4-dihydro-(1H)-quinolin-2-one-6-yl]-5-fluoro-2,4-pyrimidinediamine], for which the half-inhibitory concentration (IC50) amounted to 0.548 µM.
For `O=S(=O)(c1ccc(Nc2ncc(F)c(Nc3ccc4c(c3)OCCO4)n2)cc1)N1CCCC1` [VII-24, N4-(3,4-Ethylenedioxyphenyl)-5-fluoro-N2-[4-(pyrrolidin-1-ylsulfonyl)phenyl]-2,4-pyrimidinediamine], the IC50 worked out at 0.623 µM.
On to `CNS(=O)(=O)c1ccc(Nc2ncc(F)c(Nc3ccc4c(c3)NC(=O)C(C)(C)O4)n2)cc1OC` [VII-37, N4-(2,2-Dimethyl-3-oxo-4H-benz[1,4]oxazin-6-yl)-5-fluoro-N2-[4-(N-methyl)aminosulfonyl-3-methoxyphenyl]-2,4-pyrimidinediamine], for which the half-maximal inhibitory concentration (IC50) was 0.0281 µM.
Consider `CN1C(=O)CSc2ccc(N(CC#N)c3nc(Nc4ccc(S(N)(=O)=O)cc4)ncc3F)cc21` [VII-47, N2-(4-Aminosulphonylphenyl)-N4-cyanomethyl-5-fluoro-N4-[3-oxo-4-methyl-benzo[1,4]thiazin-6-yl]-2,4-pyrimidinediamine], for which the IC50 stood at 2.67 µM.
Same read-out and setting: in the case of `Cc1ccc(Nc2ncc(F)c(Nc3ccc4nc(O)cc(C)c4c3)n2)cc1S(N)(=O)=O` [VII-73, N2-(3-Aminosulfonyl-4-methylphenyl)-5-fluoro-N4-(2-hydroxy-4-methylquinolin-6-yl)-2,4-pyrimidinediamine] it was 6.09 µM.
Regarding `Cc1cc(O)nc2ccc(Nc3nc(Nc4cccc(S(N)(=O)=O)c4)ncc3F)cc12` [VII-74, N2-(3-Aminosulfonylphenyl)-5-fluoro-N4-(2-hydroxy-4-methylquinolin-6-yl)-2,4-pyrimidinediamine], the half-maximal inhibitory concentration (IC50) is 4.56 µM.
The same measure, in the same setting: with `Cc1ccc2cccc(Nc3nc(Nc4ccc(C)c(S(N)(=O)=O)c4)ncc3F)c2n1` [VII-80, N2-(3-Aminosulfonyl-4-methylphenyl)-5-fluoro-N4-(2-methylquinolin-8-yl)-2,4-pyrimidinediamine] the figure was 2.03 µM; with `Cc1ccc2cccc(Nc3nc(Nc4cccc(S(N)(=O)=O)c4)ncc3F)c2n1` [VII-81, N2-(3-Aminosulfonylphenyl)-5-fluoro-N4-(2-methylquinolin-8-yl)-2,4-pyrimidinediamine], 3.07 µM.

The same test, now with this note: Ramos B cells stimulated with IL-4, CD23 expression by FACS; read-out: IC50, Example 41.
For `CNS(=O)(=O)c1ccc(Nc2ncc(F)c(Nc3ccc4c(c3)OCCO4)n2)cc1OC` [VII-25, N4-(3,4-Ethyenedioxyphenyl)-5-fluoro-N2-[4-(N-methyl)aminosulfonyl-3-methoxyphenyl]-2,4-pyrimidinediamine], the IC50 was determined as 0.217 µM.
The same measure, in the same setting: in the case of `CN1C(=O)C(C)(C)Oc2ccc(Nc3nc(Nc4ccc(S(N)(=O)=O)cc4)ncc3F)nc21` [VII-43, N2-(4-Aminosulfonylphenyl)-N4-[2,2,4-trimethyl-3-oxo-5-pyrid[1,4]oxazin-5-yl]-5-fluoro-2,4-pyrimidinediamine] it was 0.603 µM; in that of `CN1C(=O)C(C)(C)S(=O)(=O)c2ccc(Nc3nc(Nc4ccc(S(N)(=O)=O)cc4)ncc3F)cc21` [VII-46, N2-(4-Aminosulphonylphenyl)-5-fluoro-N4-(2,2,4-trimethyl-1,1,3-trioxo-benzo[1,4]thiazin-6-yl)-2,4-pyrimidinediamine], 0.961 µM.
The same measure, in the same setting: with `CC1(C)Oc2cc(Nc3nc(Nc4ccc(S(N)(=O)=O)cc4)ncc3F)cnc2NC1=O` [VII-52, N2-(4-Aminosulfonylphenyl)-N4-[2,2-dimethyl-3-oxo-4H-5-pyrid[1,4]oxazin-7-yl]-5-fluoro-2,4-pyrimidinediamine] the figure was 47.1 µM.
Regarding `Cc1ccc(Nc2ncc(F)c(Nc3ccc4nc(N(C)C)ccc4c3)n2)cc1S(N)(=O)=O` [VII-75, N2-(3-Aminosulfonyl-4-methylphenyl)-N4-(2-N,N′-dimethylamine-quinolin-6-yl)-5-fluoro-2,4-pyrimidinediamine], the IC50 worked out at 0.544 µM.
In the case of `CN(C)c1ccc2cc(Nc3nc(Nc4cccc(S(N)(=O)=O)c4)ncc3F)ccc2n1` [VII-76, N2-(3-Aminosulfonylphenyl)-N4-(2-N,N′-dimethylamine-quinolin-6-yl)-5-fluoro-2,4-pyrimidinediamine], the 50% inhibitory concentration (IC50) was 0.673 µM.
For the compound `Cc1cc(COc2ccc(Nc3nc(Nc4ccc5c(c4)S(=O)(=O)NC5=O)ncc3F)cc2)no1` [VIII-1, 5-Fluoro-N4-[4-(5-methylisoxazol-3-yl)methyleneoxyphenyl]-N2-(sacchrin-6-yl)-2,4-pyrimidinediamine], the half-inhibitory concentration (IC50) was 1.59 µM.
On the same count and under the same terms, with “N2-(3-aminosulfonyl-4-methyl)phenyl-5-fluoro-N4-(4-thiomethylcarbonyl)phenyl-2,4-pyrimidinediamine [VI-95]” the figure was 1 µM; with “N2-(4-aminosulfonyl)phenyl-5-fluoro-N4-(4-thiomethylcarbonyl)phenyl-2,4-pyrimidinediamine [VI-94]”, 0.944 µM.
Regarding “N4-(2-Amino-3-methoxypyrid-6-yl)-N2-[3-(ethoxycarbonylmethylene)aminosulfonylphenyl)-5-fluoro-2,4-pyrimidinediamine [VII-10]”, the IC50 was 0.863 µM.

Still in this test, the particulars now being: Ramos B cells stimulated with IL-4, CD23 expression by FACS; sodium salt; read-out: IC50, Example 41.
`CCC(=O)NS(=O)(=O)c1cc(Nc2ncc(F)c(Nc3ccc(CCC#N)c(C)c3)n2)ccc1C` [VI-104, N4-[4-(2-Cyanoethyl)-3-methylphenyl]-5-fluoro-N2-(4-methyl-3-propionylaminosulfonylphenyl)-2,4-pyrimidinediamine Sodium Salt]: the concentration for half-maximal inhibition (IC50) came to 1.98 µM.

Still in this test, the particulars now being: Ramos B-cell line stimulated with IL-4; CD23 expression by FACS; read-out: IC50, Example 41.
“N2-(3-Aminocarbonyl-5-methylphenyl)-5-fluoro-N2-[4-(1-methylpyrazol-3-yl)amidophenyl)-2,4-pyrimidinediamine [II-19]”: the 50% inhibitory concentration (IC50) came out at 0.395 µM.

Source of the values: patent publication US11827628B2, “Compositions and methods for inhibition of the JAK pathway” (Rigel Pharmaceuticals, Inc., priority 2005, dated 2023).
